Where two headings read alike, the source gives them in different places.
Columns and labels:
P. aeruginosa HM-214 = settings: strain HM-214; antibiotic + D-11 (MICb/MICbc 128/4)
Method in brief: (§1)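 Broth microdilution per CLSI in MHB: two-fold drug dilutions mixed with an equal volume of bacterial suspension at approximately 1 × 10^6 CFU/mL, incubated 18 h at 37 °C. MIC was the lowest concentration with no visible growth; triplicate runs.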

P. aeruginosa AUMC-Pa-3 = experiment: microbe, parasite or virus in culture; settings: strain AUMC-Pa-3
Method in brief: as §1

P. aeruginosa AUMC-Pa-6 = experiment: microbe, parasite or virus in culture; settings: strain AUMC-Pa-6
Method in brief: as §1

P. aeruginosa PAO1 = experiment: microbe, parasite or virus in culture; settings: S3 Table, PAO1
Method in brief: as §1

P. aeruginosa AUMC-Pa-5 = experiment: microbe, parasite or virus in culture; settings: strain AUMC-Pa-5
Method in brief: as §1

P. aeruginosa AUMC-Pa-4 = experiment: microbe, parasite or virus in culture; settings: strain AUMC-Pa-4
Method in brief: as §1

P. aeruginosa NR-31040 = experiment: microbe, parasite or virus in culture; parameters: MICa: MIC of the antibiotic / MICac: MIC of the antibiotic in the combination: unit not given beside the values; settings: strain NR-31040
Method in brief: as §1

P. aeruginosa NR-31041 = experiment: microbe, parasite or virus in culture; parameters: MICa: MIC of the antibiotic / MICac: MIC of the antibiotic in the combination: unit not given beside the values; settings: strain NR-31041
Method in brief: as §1

P. aeruginosa ATCC27853 = experiment: microbe, parasite or virus in culture; parameters: MICa: MIC of the antibiotic / MICac: MIC of the antibiotic in the combination: unit not given beside the values; settings: strain ATCC27853; antibiotic + D-11 (MICb/MICbc 32/4)
Method in brief: as §1

P. aeruginosa PA14 = experiment: microbe, parasite or virus in culture; parameters: MICa: MIC of the antibiotic / MICac: MIC of the antibiotic in the combination: unit not given beside the values; settings: strain PA14
Method in brief: as §1

P. aeruginosa PAK = experiment: microbe, parasite or virus in culture; parameters: MICa: MIC of the antibiotic / MICac: MIC of the antibiotic in the combination: unit not given beside the values; settings: strain PAK
Method in brief: as §1

[1] = test system: clinical P. aeruginosa isolates; experiment: microbe, parasite or virus in culture; settings: Pseudomonas aeruginosa, 18 h, antibiotic alone
Method in brief: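 Broth microdilution per CLSI in MHB, two-fold drug dilutions mixed with an equal volume of bacteria at about 1 × 10^6 CFU/mL. After 18 h at 37 °C, MIC taken as the lowest concentration with no visible growth; run in triplicate.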

P. aeruginosa AUMC-Pa-1 = settings: strain AUMC-Pa-1; antibiotic + D-11 (MICb/MICbc 128/4)
Method in brief: as §1

P. aeruginosa AUMC-Pa-2 = settings: strain AUMC-Pa-2; antibiotic + D-11 (MICb/MICbc 64/4)
Method in brief: as §1

[2] = antibiotic + D-11 (MICb/MICbc 128/4)
[3] = antibiotic alone, unit not given
[4] = with D-11 at MICbc 4, unit not given
[5] = antibiotic + D-11 (MICb/MICbc 64/4)

For `O=C(N[C@H](CO)[C@H](O)c1ccc([N+](=O)[O-])cc1)C(Cl)Cl` [Chloramphenicol], the FICI (P. aeruginosa HM-214) was 0.063, the FICI (P. aeruginosa AUMC-Pa-3; [2]) was 0.063 and the “MICa: MIC of the antibiotic” value (P. aeruginosa AUMC-Pa-3; [3]) was 128. For the same compound, the “MICac: MIC of the antibiotic in the combination” value (“MICac: MIC of the antibiotic” below) (P. aeruginosa AUMC-Pa-3; [4]) was 4, the FICI (P. aeruginosa AUMC-Pa-6; [5]) was 0.094 and the “MICa: MIC of the antibiotic” value (P. aeruginosa AUMC-Pa-6; [3]) was 128. The “MICac: MIC of the antibiotic” value (P. aeruginosa AUMC-Pa-6; [4]) was 4, the FICI (P. aeruginosa PAO1; antibiotic + 2 μM D-11) was 0.094 and the FICI (P. aeruginosa PAO1; antibiotic + 4 μM D-11) was 0.156. For the same compound, the “MICac: the MIC for the antibiotic in the combination” value (P. aeruginosa PAO1; with 2 μM D-11) was 4 µM, the “MICac: the MIC for the antibiotic in the combination” value (P. aeruginosa PAO1; with 4 μM D-11) was 4 µM and the “MICa: the MIC of antibiotics” value (P. aeruginosa PAO1; antibiotic alone) was 128 µM. The FICI (P. aeruginosa AUMC-Pa-5; [5]) was 0.188, the “MICa: MIC of the antibiotic” value (P. aeruginosa AUMC-Pa-5; [3]) was 128 and the “MICac: MIC of the antibiotic” value (P. aeruginosa AUMC-Pa-5; [4]) was 16. The FICI (P. aeruginosa AUMC-Pa-4; [2]) was 0.063, the “MICa: MIC of the antibiotic” value (P. aeruginosa AUMC-Pa-4; [3]) was 128 and the “MICac: MIC of the antibiotic” value (P. aeruginosa AUMC-Pa-4; [4]) was 4. The FICI (P. aeruginosa NR-31040; [2]) was 0.063, the “MICa: MIC of the antibiotic” value (P. aeruginosa NR-31040; [3]) was 128 and the “MICac: MIC of the antibiotic” value (P. aeruginosa NR-31040; [4]) was 4. The FICI (P. aeruginosa NR-31041; [5]) was 0.094, the “MICa: MIC of the antibiotic” value (P. aeruginosa NR-31041; [3]) was 128 and the “MICac: MIC of the antibiotic” value (P. aeruginosa NR-31041; [4]) was 4. The FICI (P. aeruginosa ATCC27853) was 0.141, the FICI (P. aeruginosa PA14; [2]) was 0.063 and the “MICa: MIC of the antibiotic” value (P. aeruginosa PA14; [3]) was 128. For the same compound, the “MICac: MIC of the antibiotic” value (P. aeruginosa PA14; [4]) was 4, the FICI (P. aeruginosa PAK; [5]) was 0.094 and the “MICa: MIC of the antibiotic” value (P. aeruginosa PAK; [3]) was 128. The “MICac: MIC of the antibiotic” value (P. aeruginosa PAK; [4]) was 4, the MIC ([1]; read-out: Antibiotic sensibility (MIC) of clinical P. aeruginosa isolate AUMC-Pa-1, strain AUMC-Pa-1) was greater than 128 µM and the MIC ([1]; read-out: Antibiotic sensibility (MIC) of clinical P. aeruginosa isolate AUMC-Pa-2, strain AUMC-Pa-2) was 128 µM. The MIC ([1]; read-out: Antibiotic sensibility (MIC) of clinical P. aeruginosa isolate AUMC-Pa-3, strain AUMC-Pa-3) was 128 µM, the MIC ([1]; read-out: Antibiotic sensibility (MIC) of clinical P. aeruginosa isolate AUMC-Pa-4, strain AUMC-Pa-4) was 128 µM and the MIC ([1]; read-out: Antibiotic sensibility (MIC) of clinical P. aeruginosa isolate AUMC-Pa-5, strain AUMC-Pa-5) was 128 µM. The MIC ([1]; read-out: Antibiotic sensibility (MIC) of clinical P. aeruginosa isolate AUMC-Pa-6, strain AUMC-Pa-6) was 128 µM, the MIC ([1]; read-out: Antibiotic sensibility (MIC) of clinical P. aeruginosa isolate HM-214, strain HM-214) was 128 µM and the MIC ([1]; read-out: Antibiotic sensibility (MIC) of clinical P. aeruginosa isolate NR-31040, strain NR-31040) was 128 µM. It also gave an MIC ([1]; read-out: Antibiotic sensibility (MIC) of clinical P. aeruginosa isolate NR-31041, strain NR-31041) of 128 µM, an FICI (P. aeruginosa AUMC-Pa-1) of 0.047 and an FICI (P. aeruginosa AUMC-Pa-2) of 0.094.

Source: paper PMC8445441, “Elucidating the mechanism by which synthetic helper peptides sensitize Pseudomonas aeruginosa to multiple antibiotics” (PLoS Pathogens, 2021)
